Reference: the NIST ThermoML archive (doi:10.1016/j.jct.2010.06.008)

Assay: xn = mol fraction of the nth substance listed
Conditions: 101 kPa, Liquid; for speed of sound: Sing-around technique in a fixed-path interferometer; for mass density: Vibrating tube method

CC(C)CCl [1-chloro-2-methylpropane] + CCCCCC
Conditions | mass density, 283.15 K [kg/m3] | mass density, 298.15 K [kg/m3] | mass density, 313.15 K [kg/m3] | speed of sound, 283.15 K [m/s] | speed of sound, 298.15 K [m/s] | speed of sound, 313.15 K [m/s]
x2 = 0 | 888.845 | 871.533 | 853.902 | 1141.7 | 1078.6 | 1016.3
x2 = 0.0512 | 874.715 | 857.627 | 840.236 | 1139.3 | 1075.9 | 1013.4
x2 = 0.0999 | 861.62 | 844.732 | 827.564 | 1137.3 | 1073.7 | 1011
x2 = 0.2003 | 835.641 | 819.166 | 802.454 | 1134 | 1070 | 1006.9
x2 = 0.2993 | 811.259 | 795.172 | 778.889 | 1131.9 | 1067.5 | 1003.9
x2 = 0.4005 | 787.516 | 771.817 | 755.943 | 1130.6 | 1065.8 | 1001.8
x2 = 0.4977 | 765.822 | 750.487 | 735.001 | 1130.5 | 1065.2 | 1000.6
x2 = 0.598 | 744.502 | 729.51 | 714.446 | 1131.3 | 1065.5 | 1000.4
x2 = 0.6993 | 723.963 | 709.35 | 694.648 | 1133 | 1066.7 | 1001.1
x2 = 0.799 | 704.731 | 690.452 | 676.142 | 1135.8 | 1069 | 1002.8
x2 = 0.8967 | 686.793 | 672.832 | 658.858 | 1139.6 | 1072.2 | 1005.6
x2 = 0.9472 | 677.811 | 664.036 | 650.244 | 1142 | 1074.3 | 1007.5

CC(C)CCl [1-chloro-2-methylpropane] + CCCCCCC
Conditions | mass density, 283.15 K [kg/m3] | mass density, 298.15 K [kg/m3] | mass density, 313.15 K [kg/m3] | speed of sound, 283.15 K [m/s] | speed of sound, 298.15 K [m/s] | speed of sound, 313.15 K [m/s]
x2 = 0 | 888.845 | 871.533 | 853.902 | 1141.7 | 1078.6 | 1016.3
x2 = 0.0507 | 874.748 | 857.771 | 840.47 | 1142.2 | 1079.1 | 1016.8
x2 = 0.0979 | 862.133 | 845.448 | 828.448 | 1143 | 1079.8 | 1017.4
x2 = 0.2004 | 836.427 | 820.343 | 803.95 | 1145.4 | 1082.2 | 1019.6
x2 = 0.3008 | 813.265 | 797.726 | 781.886 | 1149 | 1085.5 | 1022.9
x2 = 0.3993 | 792.269 | 777.224 | 761.888 | 1153.4 | 1089.8 | 1027
x2 = 0.4999 | 772.383 | 757.812 | 742.952 | 1158.6 | 1094.9 | 1032
x2 = 0.5973 | 754.5 | 740.349 | 725.924 | 1164.4 | 1100.6 | 1037.5
x2 = 0.6994 | 737.065 | 723.337 | 709.345 | 1171.2 | 1107.2 | 1044
x2 = 0.8006 | 720.978 | 707.64 | 694.051 | 1178.7 | 1114.2 | 1051.1
x2 = 0.9002 | 706.284 | 693.212 | 679.976 | 1187 | 1122.3 | 1058.9
x2 = 0.9491 | 699.353 | 686.54 | 673.496 | 1191 | 1126.4 | 1062.7
